Legend:
CRFR2 = molecular target: T1, CRFR2 (Homo sapiens, UniProt Q13324); experiment: binding to CRFR2 (Ki)
T1 sequence (Q13324 1-411): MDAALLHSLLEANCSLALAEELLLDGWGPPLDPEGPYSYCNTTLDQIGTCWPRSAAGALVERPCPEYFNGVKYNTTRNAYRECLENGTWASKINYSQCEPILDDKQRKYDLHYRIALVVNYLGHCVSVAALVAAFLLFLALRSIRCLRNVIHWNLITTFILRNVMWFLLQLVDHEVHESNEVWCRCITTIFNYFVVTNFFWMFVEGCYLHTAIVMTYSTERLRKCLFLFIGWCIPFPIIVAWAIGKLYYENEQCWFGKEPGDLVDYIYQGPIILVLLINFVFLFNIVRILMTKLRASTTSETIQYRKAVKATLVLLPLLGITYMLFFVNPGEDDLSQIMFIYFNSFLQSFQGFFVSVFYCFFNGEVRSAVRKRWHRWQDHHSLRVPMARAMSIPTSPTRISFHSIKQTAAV

tau and p-tau = experiment: effect of J03 and J19 on tau and p-tau (FIG. 39E-39F, system not given); conditions: FIG. 39E
Description: JI9 decreased tau and both J03 and JI9 decreased p-tau (FIG. 39E). Therefore, while the p-tau/tau ratio looks unchanged for J19 FIG. 39F. This is due to the tau decrease and not due to a lack of effect.

[1] = tested on: tau and phospho-tau in SHSY-5Y cells; experiment: CRF-induced tau, p-tau and sAPPα changes in SHSY-5Y cells; format: cell-based; conditions: for p-tau/tau ratio: FIG. 32C
[2] = in vivo pharmacokinetics, plasma and brain levels; design: species or system mouse
J20 mice [3] = experiment: J03 pilot study #2 in J20 mice (oral, longer duration); format: in vivo, mouse
Description: (§1) Animal experiments were performed using J20 mice. The J20 mouse is a model of for Alzheimer's disease. This model overexpresses human APP with two mutations linked to familial Alzheimer's disease (the APP KM670/671NL (Swedish) and 5APP V717F (Indiana) mutations).
Based on these promising results, the study was repeated (pilot study #2) with oral delivery and a longer duration.

p-tau = experiment: cortisol-induced p-tau increase in vitro (screen of clinical library of CRF-1 inhibitors); format: cell-based
Description: To identify therapeutic candidates, a clinical library of CRF-1 inhibitors to was screened to determine their effects on cortisol-induced p-tau increases. […] J03 was shown specifically to inhibit stress-induced p-tau increases by cortisol in vitro.

J20 mice [4] = experiment: J17 pilot study in J20 mice (oral, 28 days); format: in vivo, mouse; conditions: oral 28 days
Description: as §1
In a J17 pilot study (#1 pilot study) male and female J20 mice were housed singly and treated with J17 at 10 rnkd by oral delivery for 28 days.

[5] = tested on: tau and p-tau in SH-Sy5Y cells; experiment: screens for tau and p-tau levels in SH-Sy5Y cells (no CRF stated); format: cell-based; conditions: screen of FIG. 28B
Description: As described below, in vitro studies were performed using SHSY-5Y cells. These cells are a useful neurological model that differentiate into cells with morphological and biochemical characteristics of mature neurons including mature isoforms of tau. […]

J20 mice [6] = experiment: J03 pilot study #1 in J20 mice (SQ, 12 days); format: in vivo, mouse
Description: as §1
In pilot study #1, J20 mice housed singly were treated by SQ injection of J03 in PEG/b-MCD at 10 mkd for 12 days. NOR analysis of object memory (N=5/group) was performed. The results are illustrated in FIGS. 10D-10I. […] There was no difference in Aβ1-40 (FIG. 10E), but a decrease in Aβ1-42 (FIG. 10F).

[7] = CRF-1 at 100 nM for 3 days, compound at 20 nM, FIG. 29A
[8] = oral delivery, longer duration, J20 mice

In the case of `CCC(COC)n1nnc2c(Nc3ccc(OC)cc3C)nc(C)cc21` (stereo not drawn) [J03, N-(4-Methoxy-2-methylphenyl)-1-[1-(methoxymethyl)propyl]-6-methyl-1H-1,2,3-triazolo[4,5-c]pyridine-4-amine], the Ki (CRFR2) is reported as over 10 µM, the p-tau (tau and p-tau) is reported as “decreased” and the p-tau [1, 7] is reported as “decreased”. The total tau [1, 7] was “decreased”, the “tau after exposure to CRF” value ([1]; FIG. 21D) was “decreased” and the “p-tau after exposure to CRF” value ([1]; FIG. 21E) was “decreased”. The “tau increases induced by CRF” value ([1]; SHSY-5Y cells cultured without serum, CRF at increasing concentrations, FIG. 10A) was “reduces”, the “phospho-tau (p-tau) increases induced by CRF” value ([1]; SHSY-5Y cells cultured without serum, CRF at increasing concentrations, FIG. 10B) was “reduces” and the “sAPPα increase, significance” value ([1]; at 100 nM CRF, FIG. 32D) was “reached significance”. The p-tau/tau ratio ([1]; at 50 and 100 nM CRF) was “highly significantly decreased”, the tau ([1]; in the absence of CRF and in the presence of 100 nM CRF, FIG. 32A) was “significantly decreased” and the p-tau/tau ratio ([1]; in the absence of CRF) was “decreased”. The p-tau ([1]; in the presence and absence of CRF, FIG. 32B) was “significantly reduced”, the “sAPPα after exposure to CRF” value ([1]; versus control, FIG. 21C) was “lower” and the sAPPα ([1]; with and without CRF, FIG. 32D) was “trend for sAPPα to be higher”. The brain levels ([2]; 10 mk subcutaneous (SQ) single injection, J20 mice, FIG. 10C) was “low”, the “brain levels at the peak after oral delivery, compared with SQ” value ([2]; oral delivery by feeding (not gavage) at 10 mg/kg) was “slightly higher” and the “novel location assay / preference” value (J20 mice [3]; [8]) was “performed well”. The novel object assay (J20 mice [3]; [8]) was “performed well”, the sAPPα (J20 mice [3]; oral, FIG. 13A) was “increased slightly” and the sAPPβ (J20 mice [3]; oral, FIG. 13B) was “unchanged”. For the same compound, the sAPPα/sAPPβ ratio (J20 mice [3]; oral, FIG. 13C) was “slightly increased”, the Aβ1-40 (J20 mice [3]; oral, FIG. 14A) was “unchanged” and the Aβ1-42 (J20 mice [3]; oral, FIG. 14B) was “unchanged”. The Aβ1-40/Aβ1-42 ratio (J20 mice [3]; oral, FIG. 14C) was “unchanged”, the p-tau (J20 mice [3]; oral, decrease reached statistical significance, FIG. 16) was “decreased” and the “stress-induced p-tau increases by cortisol” value (p-tau) was “inhibit”. The activity (J20 mice [4]; male and female J20 mice housed singly, not significant, FIG. 24A) was “lowered”, the “novel object preference, overall” value (J20 mice [4]; all mice, FIG. 24B) was “increased” and the sAPPα (J20 mice [4]; both genders, FIG. 25A) was “increase”. For the same compound, the “ratio sAPPα/sAPPβ” value (J20 mice [4]; males, FIG. 25C) was “slight increase”, the p-tau [5] was “neither J14 nor J03 decreased” and the total tau [5] was “neither J14 nor J03 decreased”. The “NOR analysis of object memory (behavior)” value (J20 mice [6]; J20 mice housed singly, SQ 10 mkd in PEG/b-MCD for 12 days, FIG. 10D) was “slight improvement”, the P-tau (J20 mice [6]; SQ 10 mkd, 12 days) was “significantly lower” and the Aβ1-40 (J20 mice [6]; SQ 10 mkd, 12 days, FIG. 10E) was “no difference”. The Aβ1-42 (J20 mice [6]; SQ 10 mkd, 12 days, FIG. 10F) was “decrease”, the Aβ1-40/1-42 ratio (J20 mice [6]; SQ 10 mkd, 12 days, FIG. 10G) was “significantly increased” and the SAPP (J20 mice [6]; SQ 10 mkd, 12 days, FIG. 10H) was “very slightly increased”. For the same compound, the sAPP/Aβ1-42 ratio (J20 mice [6]; SQ 10 mkd, 12 days, FIG. 10I) was “very slightly increased”, the “ratio (p-tau and tau)” value (J20 mice [6]; SQ 10 mkd, 12 days, great individual variation) was “slightly higher” and the total tau (J20 mice [6]; SQ 10 mkd, 12 days, largely due to one mouse, FIG. 11A) was “decreased”.
